Residues, ends and D or L forms follow the SMILES beside them. *: point of attachment. Cbz = O=C(OCc1ccccc1)*; CH2F = FC*
Key:
[1] = tested on: rat glomerulonephritis model; conditions: cited from earlier work
[2] = tested on: podocytes; conditions: in vivo; cited from earlier work
[3] = tested on: cathepsin L; experiment: Cathepsin L activity assay in glomerular extracts (fluorogenic substrate CV-(FR)2); format: biochemical, mouse; conditions: LPS treated mice, co-incubation
Procedure: Isolation and processing of glomeruli. Glomeruli were isolated from kidneys of 8-12 weeks old LPS- and PBS-treated (control) mice using a sequential sieve technique with mesh sizes of 180, 100, and 71 μm. The fraction collected from the 71-μm sieve was maintained for soup/pellet fractionation. Isolated glomeruli were homogenized in buffer containing 20 mM HEPES pH 7.5, 100 mM NaCl, 1 mM MgCl2, 1 mM PMSF, protease inhibitors (Roche), calpain inhibitor (Calbiochem), and E-64d (Calbiochem) using Dounce homogenizer. Subsequently, cytosol was centrifuged for 10 min at 4,600 g. Proteins were solubilized by 1% Triton X-100, 1 hour at 4° C., before it was spun at 70,000 g for 1 hour.
Cathepsin L activity assay. Subcellular sites of cathepsin L and cathepsin B activity in glomerular extracts were visualized by a fluorogenic substrate, CV—(FR)2, which emits light upon cleavage by cathepsin L or cathepsin B (Biomol).
To test the significance of this prediction, glomeruli were isolated from control mice and animals that were injected with low-dose lipopolysaccharide (LPS), a treatment causing high levels of cytosolic cathepsin L in podocytes. The tissue samples were further processed to obtain cytosolic and membrane-bound glomerular extracts (FIG. 1A). […]

[4] = tested on: cathepsin L; experiment: Cellular CatL cleavage assay: CD2AP-FLAG HEK293 cells co-transfected with cathepsin L constructs; format: cell-based; conditions: for cleavage of CD2AP into p32 by WT cathepsin L: WT cathepsin L (pre-pro and short form), co-incubation with inhibitor; for cleavage of CD2AP into p32 by cytosolic (short, CatL M1) cathepsin L: cytosolic cathepsin L alone, inhibitor added
From the text: FIG. 2A is a scan of a photograph showing a silver stained gel of FLAG-CD2AP after cleavage with CatL at various pH. FIG. 2B is a scan of a photograph showing an immunoblot of cleaved CD2AP fragments that are tagged with a N-terminal GFP. GFP-CD2AP is stable in the absence of CatL enzyme. Cleavage of CD2AP at pH 4.5 and 5.5 leads to complete digestion of the protein. At pH 7.0, CD2AP is cleaved into a stable 55 kD fragment (▪) as detected with an anti-GFP antibody. The same fragment is detected with the CD2AP antiserum which is raised against the SH3 domains of CD2AP (anti-N-CD2AP). The CD2AP antiserum also detects a weak band corresponding to a 44 kD fragment (▴, detected by the affinity of the antibody to the C-terminal SH3, anti-C-CD2AP). FIG. 2C is a schematic representation showing the match of cleavage fragments with predicted CatL cleavage site QPLGS. FIG. 2D is a blot showing that CatL cleaves CD2AP-FLAG yielding a 44 kD (▴) and a 32 kD ([…]) fragment. FIG. 2E is a schematic representation showing that both fragments have corresponding predictions in the amino acid sequence of CD2AP (QPLGS and LSAAE). FIG. 2F is a blot showing results from a cellular CatL cleavage assay: Wild type (WT) CatL (pre-pro CatL and short form) cleaves CD2AP in HEK293 cells. […] Short CatL (CatL M1) is sufficient to cleave CD2AP yielding a 32 kD fragment ([…]). This cleavage is abrogated by a specific CatL inhibitor. FIG. 2G is a blot showing that deletion of the CatL cleavage site LSAAE protects CD2AP from limited proteolysis into the 32 kD fragment ([…]).
Cell culture and transient transfection. Mouse podocytes were cultured as described previously (Mundel, P. et al. Exp. Cell Res. 236, 248-258 (1997)). HEK293 cells were maintained and transfected as previously reported (Reiser, J. et al. Nat. Genet. 37, 739-744 (2005)).
Next, it was investigated whether cytosolic cathepsin L in cells is sufficient to process CD2AP. CD2AP-FLAG expressing HEK293 cells were co-transfected with WT cathepsin L […] which generates cytosolic and lysosomal cathepsin L protein and a cathepsin L construct that contains a deletion of the first AUG site and thus encodes selectively for the cytosolic form of cathepsin L. The experiments were performed in the presence or absence of a specific cathepsin L inhibitor (FIG. 2F). WT cathepsin L led to cleavage of CD2AP yielding p32. […] More importantly, transfection of cytosolic cathepsin L alone was sufficient to cleave CD2AP resulting in the production of p32 (FIG. 2F). […] The stable p32 fragment was identified in the cleavage assays at neutral pH (FIG. 2A). In addition, this fragment was generated in HEK 293 cells using cytosolic cathepsin L. Therefore, this fragment was regarded as an end-product generated through cytosolic cathepsin L cleavage. […]

[5] = target: cathepsin B (Homo sapiens, UniProt P07858); conditions: cited from earlier work
[6] = listed as specific CatL inhibitor

SMILES: CC(C)C[C@H](NC(=O)[C@H]1O[C@@H]1C(=O)O)C(=O)NCCCCN=C(N)N [E64]
- experimental proteinuria [1]: can reduce experimental proteinuria
- protection against proteinuria [2]: safeguard against proteinuria

SMILES: COC(=O)[C@@H]1CC2=CC(=O)CC[C@]2(C)[C@@]23O[C@@H]2C[C@@]2(C)[C@@H](CC[C@@]24CCC(=O)O4)[C@H]13 [Epleronone]
- protection against proteinuria [2]: safeguard against proteinuria

SMILES: CCN(CC)CCCC(C)Nc1nc(C)cc(Nc2ccc3nc(C)cc(N)c3c2)n1 (centres unmarked) [NSC23766]
- protection against proteinuria [2]: safeguard against proteinuria

SMILES: O=C(NC(Cc1ccccc1)C(=O)NC(Cc1ccccc1)C(=O)CF)OCc1ccccc1 (stereo not drawn) [Z-FF-FMK] (Cbz-Phe-Phe-CH2F; configuration not given here)
- inhibition of cathepsin L activity in cytosolic extract of glomeruli [3]: could be inhibited
- cleavage of CD2AP into p32 by WT cathepsin L [4, 6]: can be prevented
- cleavage of CD2AP into p32 by WT cathepsin L ([4]; listed as specific cathepsin L inhibitor): could be prevented
- cleavage of CD2AP into p32 by cytosolic (short, CatL M1) cathepsin L ([4]; listed as cathepsin L inhibitor): could be blocked
- cleavage of CD2AP into p32 by cytosolic (short, CatL M1) cathepsin L [4, 6]: abrogated
- inhibition of cathepsin B [5]: does not inhibit cathepsin B

SMILES: CC(C)[C@@H]1NC(=O)[C@@H](Cc2ccccc2)NC(=O)[C@H](CC(=O)O)NC(=O)CNC(=O)[C@H](CCCN=C(N)N)NC1=O [cycloRGDfV]
- protection against proteinuria [2]: safeguard against proteinuria

— US20110236397A1, “LIMITED PROTEOLYSIS OF CD2AP AND PROGRESSION OF RENAL DISEASE” (University of Miami, priority 2008, published 2011)
